Here are results for 89 compounds from a melting point compilation (Tetko et al.; mined from patent text by program, amines drawn as free bases though some values may be those of a salt).

`C=CCO[C@H]1[C@@H](OCc2ccccc2)[C@@H](OCc2ccccc2)[C@H](OCc2ccccc2)[C@@H](OCc2ccccc2)[C@@]1(CCC)OC(=O)CCC` (racemic): the melting point (in general, the temperature of the solid-liquid transition) was 115 °C.
With `O=c1c2c(Cc3ccccc3)n[nH]c2c2cccnc2n1-c1cccc([N+](=O)[O-])c1`, the melting point lay within 276 to 279 °C.
Turning to `CC(C)(C)[Si](O[C@@H]1CC(=O)C[C@H](O[Si](c2ccccc2)(c2ccccc2)C(C)(C)C)C1)(c1ccccc1)c1ccccc1`, the melting point fell in the range of 108 to 109 °C.
The same measure for `CC(C)(C)C(OC(=O)Cl)C(Oc1ccc(Cl)cc1)N1CN=CN1` (centres undefined): 75 to 80 °C; for `COc1ccc(C(=O)Nc2c(Cl)cncc2Cl)c2c1OCC2CC(=O)NCc1ccccc1Cl` (centres undefined): 288 to 289 °C; for `CCC(C)(C)NC(=O)c1cnc2cccc(C)n2c1=O`: 87 to 89 °C.
The same measure for `O=Cc1c[nH]c(=O)c2ccccc12`: 222 to 223 °C; for `O=C1CCc2c(Cl)sc(Cl)c21`: 168 to 170 °C.
As to `CCOC(=O)Cc1c(C(=O)OCC)c(C)cn1C`, the melting point is 71 to 72 °C.
`C=CCc1ccccc1OC[C@@H](O)CNCCc1ccc(NC2CCN(C(=O)NCCCCCCCC)CC2)cc1` yielded a melting point of 73 to 80 °C.
Regarding `Cc1ccc(S(=O)(=O)n2ccnc2C(O)(c2ccccc2)c2ccc(Cl)cc2)cc1` (centres undefined), the melting point was in the range of 116 to 118 °C.
With `O=C(c1nnn(Cc2cc(C(F)(F)F)cc(C(F)(F)F)c2)c1-n1ccnc1)c1c(CO)noc1-c1ccccc1Cl`, the melting point was determined as 149 °C.
Consider `C=C1CC(c2ccc(C)c(C)c2)N(C)C1=O` (centres undefined), for which the melting point is 180 to 184 °C.
The same measure for `CC(=O)ONC(=N)c1ccc(-c2ccc(-c3ccc(C(=N)NOC(C)=O)o3)o2)cc1`: 212 to 213 °C; for `CC(=O)Oc1c(C2CCN(CCCCNC(=O)c3ccc(NC(=O)c4ccc(Cl)cc4)cc3)CC2)ccc2c1CCCC2`: 254 °C; for `CC(C)(C)OC(=O)[C@@H]1CCCN2C(=O)CC[C@H](NC(=O)c3ccccc3)C(=O)N12`: 74 to 76 °C.
Take `Cc1cc(S(=O)(=O)c2ccc([N+](=O)[O-])cc2)cc(Br)n1`: the melting point lay within 154 to 156 °C.
Regarding `Cc1nn(C)c2nc(N(CC3CC3)C(=O)C3CC3)c(CN(Cc3cc(C(F)(F)F)cc(C(F)(F)F)c3)c3nnn(C)n3)cc12`, the melting point lay within 120 to 122 °C.
`Nc1n[nH]c2nc(N3CCOCC3)cc(-c3ccccc3)c12` returned a melting point of 178 to 180 °C.
`Cn1c2cc(Cl)ncc2c(=O)n2nccc12` gave a melting point greater than 300 °C.
In the case of `CCOC(=O)Cc1nc(-c2ccccc2)c(-c2ccccc2)o1`, the melting point fell in the range of 71 to 72 °C.
The compound `C=Cc1ccc(NC(=O)OC)nc1` showed a melting point of 146 to 148 °C.
Turning to `CCN(CCCCNC(=O)c1ccc2ccccc2c1)C1CCc2ncsc2C1` (centres undefined), the melting point came to 120 °C.
For `COC(=O)c1ccc(OCC(O)COc2ccc(Cl)cc2)cc1` (centres undefined), the melting point fell in the range of 88 to 90 °C.
In the case of `CC(C)(C)OC(=O)NCCCCC(=O)Nc1cc(C(=O)O)ccc1Cl`, the melting point is 203 °C.
With `C=C1c2ccccc2C=Cn2c(OC)nnc21`, the melting point fell in the range of 160 to 161 °C.
In turn, `COc1ccc(N2CCN(CCC3CN(C)C(=O)O3)CC2)cc1` (centres undefined) gave a melting point of 103 to 104 °C.
As for `Nc1ncnc2sc(Cc3ccccc3)c(-c3ccc([N+](=O)[O-])cc3)c12`, the melting point is 231 to 233 °C.
For the compound `CC(=O)NCC1CN(c2ccc(N3CCN(c4nccs4)CC3)c(F)c2)C(=O)O1` (centres undefined), the melting point lay within 205 to 206 °C.
The value for `CN(O)C(=O)CCc1ccc2c(c1)Cc1ccccc1CO2` was 120 to 122 °C.
The compound `O=C(NCc1ccc(Cl)cc1)c1cn2c3c(cc(C#CCO)cc3c1=O)CC2CO` (centres undefined) showed a melting point of 224 to 225 °C.
`Cn1nc(N)c2c(=O)n3c(nc21)SCC3` yielded a melting point of 280 to 283 °C.
The value for `Cc1cc(C2=C(C=CC3CC(O)CC(=O)O3)C(C)(C)CC(O)C2)ccc1F` (centres undefined) was 77 to 79 °C; that for `CCCOc1ccc([N+](=O)[O-])cc1[N+](=O)[O-]` was 84 to 86 °C; that for `NC(=O)c1coc(-c2ccc(Oc3ccc(F)cc3)cc2)n1` was 164 °C.
For `Cc1nc([C@@H]2C[C@H]2c2ccc3ccccc3n2)cc(-n2nc(C)nc2C)n1` (relative stereo), the melting point lay in the range of 140 to 141 °C.
`O=C(Nc1cccc(C(F)(F)F)c1)N1COc2cc(O)ccc21` came in with a melting point of 173 to 174 °C.
The compound `CCc1ccc2c(c1)C=Cc1cc(C)ccc1C2c1cn(-c2ccnc(N3CC(C(=O)Nc4nc(CC(=O)O)cs4)C3)n2)c(=O)[nH]c1=O` (centres undefined) yielded a melting point of 235 °C.
The value for `O=C1Nc2ccc(Cl)cc2C2(c3cccs3)OCCN12` (centres undefined) was 193 to 194 °C; that for `CN1CCN(C(=O)[C@H](CC(N)=O)NC(=O)CCc2ccc(OCc3ccccc3)cc2OCc2ccccc2)CC1` was 121 to 123 °C.
Regarding `C[C@H]1C[C@H](C(=O)O)c2cc(Cl)c(Cl)cc2O1` (relative stereo), the melting point was 108 to 110 °C.
In turn, `CC1(COCCCOc2ccc(C(=O)O)cc2)COC1` yielded a melting point of 102 °C.
On to `CCCCN(CCCC)Cc1nc(-c2ncn3c2CN(C)C(=O)c2ccccc2-3)no1`, for which the melting point fell in the range of 105 to 110 °C.
The value for `C[Si](C)(C)CCc1nnc(N)nc1N` was 203 to 204 °C; that for `CCCc1nc2c(N)nc3cc(Cl)ccc3c2s1` was 159 to 160 °C; that for `COC(=O)c1ccc(-c2cc(-c3ccc4c(c3)C(C)(C)CCC4(C)C)[nH]n2)cc1` was 155 to 156 °C.
Turning to `COc1ccc(CNc2cc[nH]n2)cc1OC1CCCC1`, the melting point was 106 to 110 °C.
For `COc1cnc(Cl)c(C(N)=O)c1`, the melting point was 129 to 132 °C.
The same measure for `C=CC(=O)OCCCCC[C@H]1CC[C@H](c2cccc(F)c2F)CC1`: 29.6 to 30.7 °C; for `COc1cc(O)c2c(c1OC)C(=O)C(O)=C(C)C2=O`: 218 to 220 °C.
As to `CCCC[C@H](NC(=O)[C@H](CC(C)C)NC(=O)c1ccc(C(F)(F)F)cc1F)C(=O)CSCc1ccco1`, the melting point was in the range of 102 to 106 °C.
`COc1ccc(-c2cc(=Nc3c(C)cc(C)cc3C)n(C)c(Cl)n2)cc1OC` displayed a melting point of 159 to 162 °C.
Take `O=C1CCC(N2Cc3cc(CNC(=O)Nc4cccc5ccccc45)ccc3C2=O)C(=O)N1` (centres undefined): the melting point was in the range of 250 to 252 °C.
`N#CCCSCc1csc(=O)[nH]1` had a melting point of 108 to 111 °C.
In turn, `CC(c1ccnc(C#N)c1)C(O)(Cn1cncn1)c1ccc(F)cc1F` (centres undefined) gave a melting point of 188 to 189 °C.
The same measure for `Cc1nc2c(C=Cc3ccccc3)cccn2c1N=O`: 158 to 160 °C; for `CSC1=C(c2ccc(O)cc2)C(=O)c2cc(O)ccc21`: 90 to 92 °C; for `COC(=O)C(C(=O)OC)c1ccccc1C(=O)O`: 119 to 120 °C.
As for `O=[N+]([O-])c1ccc(F)cc1CO`, the melting point lay in the range of 82 to 86 °C.
In the case of `COc1ccc(COc2c(C)c(C)c3c(c2C)C(c2ccc(N4CCN(C)CC4)cc2)C(C)(C)O3)cc1` (centres undefined), the melting point fell in the range of 121 to 122 °C.
The same measure for `COc1ccc(Oc2cccc(C(=O)O)c2)cc1`: 141 to 143 °C; for `CC(C)c1nnn(-c2c(Cl)cccc2Cl)c1CO`: 154 to 155 °C; for `CCOC(=O)C=Cc1cccc(Nc2ccc3nc[nH]c3c2)c1`: 188 to 190 °C.
`CCc1cccc2c3c([nH]c12)C(CC)(CC(=O)O)CCC3c1ccccc1` (centres undefined) gave a melting point of 140 to 142 °C.
The value for `Cc1cc(C(F)(F)C(F)(F)F)nc(N(C(N)=O)c2ccccc2[N+](=O)[O-])n1` was 156 °C.
The value for `C=C(CO)COCCCCCCCCCCCCCCCC` was 34 °C; that for `Cc1nc(C(=O)NS(=O)(=O)c2c(C)csc2C)no1` was 164 °C; that for `CCOC(=O)c1ccc(-c2cn3cc(C)ccc3n2)cc1` was 228 to 230 °C.
`COc1ccc(S(=O)(=O)C(C)(CC2CCCCC2)C(=O)NO)cc1` (centres undefined) came in with a melting point of 58 °C.
For `CNc1ncc([N+](=O)[O-])c(Cl)n1`, the melting point was 172 to 173 °C.
`O=[N+]([O-])c1ccc(C=C/C=C/c2ccc(Cl)c(Cl)c2)cc1` had a melting point of 125 to 135 °C.
The same measure for `CCCCCCCCCCCCS(=O)(=O)N[C@H]1CCCNC(=O)C1`: 100 to 101 °C; for `COc1ccc(CN2CCC(c3cn(Cc4ccc(Cl)s4)c4cccnc34)CC2)cc1C(=O)O`: 201 to 202 °C.
With `CSC1=NS(=O)(=O)c2cscc21`, the melting point is 184 to 186 °C.
Take `CN1CCC(CC(=O)N2c3ccccc3NC(=O)c3cscc32)CC1`: the melting point fell in the range of 184 to 185 °C.
The same measure for `Cn1cc(-c2ccc(C(F)(F)F)cc2)c(=O)c(-c2cccc(C(F)(F)F)c2)c1`: 110 to 113 °C; for `CN(C)CCCCc1ccc(CO)o1`: 24 °C.
The compound `COC1=C(OC)C(=O)C2=C(CC(CO)(CCCCCCCCO)C2)C1=O` returned a melting point of 59 to 61 °C.
The compound `Cc1nc(N2CCN(Cc3ccccc3)C2=O)sc1C(=O)NCc1cccnc1` registered a melting point of 153 to 154 °C.
For `Oc1ccc2c(c1)C1CNCC(C2)C1` (centres undefined), the melting point lay in the range of 215 to 217 °C.
Take `CCC1(c2ccccc2)OC(C(=O)O)Oc2ccc(Cl)cc21` (centres undefined): the melting point worked out at 85 °C.
The same measure for `Cc1cc(NC(=O)C(=O)N(C)Cc2ccccc2)cc(C)c1S(=O)(=O)C[N+](=O)[O-]`: 99 to 101 °C; for `CC1Cc2cc3c(cc2C(c2ccc([N+](=O)[O-])cc2)=NN1c1nccs1)OCO3` (centres undefined): 145 to 150 °C.
With `O=S(=O)(c1ccccc1)n1c(Cc2cccc(-c3cc4ccccc4n3S(=O)(=O)c3ccccc3)c2)cc2ccccc21`, the melting point lay within 76 to 78 °C.
The compound `C[C@H](NC(=O)C1(C)Oc2cc([N+](=O)[O-])ccc2NC1=O)C(=O)N[C@H](CCC(=O)O)C(=O)O` (some centres undefined) gave a melting point of 132 to 135 °C.
The same measure for `CC1C(=O)Oc2cc(N3CCOCC3)ccc21` (centres undefined): 118 to 121 °C; for `CCOP(=O)(OCC)c1ccc(C(=O)O)cc1`: 101 °C.
As for `OCc1ccc(-c2ccc(O)cc2)c(-c2ccc(O)cc2)c1`, the melting point came out at 214 °C.
Regarding `Clc1ncc(Cl)c(NC2CCCCC2)n1`, the melting point was in the range of 93 to 94 °C.
